# Assay results published in patent publication US8247211B2, “Glycopeptide antibiotics” (American Cyanamid Company, priority 2001, dated 2012).
# Experiments:
# Assay in all cases: In vitro antibacterial evaluation: minimum inhibitory concentration (MIC), broth dilution method
# Assay type in all cases: cell-based
# [1] = tested on: Escherichia coli
# [2] = tested on: Streptococcus sp.; details: broth dilution, 18 hours at 35° C.
# Outline: (§1)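 NCCLS M7-A2 broth dilution; Muller-Hinton II […]; 5×10^5 CFU/mL; 64-0.06 μg/mL. MIC = lowest concentration with no growth.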
# [3] = tested on: Escherichia coli; remark: listed apart in the source
# Outline: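 NCCLS M7-A2 broth dilution with Mueller-Hinton II, testing 64-0.06 μg/mL antibiotic against 5×10^5 CFU/mL inocula. Test strains include recent methicillin-, penicillin- or vancomycin-resistant clinical isolates. MIC is the lowest concentration preventing growth.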
# [4] = tested on: Staphylococcus sp.; details: 18 hours at 35° C.
# Outline: as §1
# [5] = tested on: Enterococcus sp.
# Outline: as §1
smiles,measurement,setting,value
"CC(c1ccccc1)C1NC(=O)CNC(=O)C(CO)NC(=O)C(C(O)C2CNC(=N)N2C2OC(CO)C(O)C(O)C2O)NC(=O)C(C(O)C2CNC(=N)N2)NC(=O)C(Cc2ccc(OC3OC(CO)C(OC4OC(CO)C(O)C(O)C4O)C(O)C3O)cc2N)NC1=O (stereo not drawn) [Example 287, Cyclo[glycyl-β-methylphenylalanyl-2-amino-O-(4-O-hexopyranosylhexopyranosyl)tyrosyl-3-(2-iminoimidazolidin-4-yl)seryl-3-(3-hexopyranosyl-2-iminoimidazolidin-4-yl)serylseryl]]",MIC Escherichia coli (ATCC 25922),[1],>64 µg/mL
same,MIC Streptococcus pneumoniae (ATCC 6301),[2]; strain ATCC 6301,64 µg/mL
same,MIC Streptococcus pneumoniae (GC 1894),[2]; strain GC 1894,64 µg/mL
same,MIC Streptococcus pyogenes (GC 4563),[2]; strain GC 4563,>64 µg/mL
same,MIC Streptococcus agalactiae (GC 4564),[2]; strain GC 4564,>64 µg/mL
same,MIC Streptococcus pneumoniae (GC 4565),[2]; strain GC 4565,64 µg/mL
same,MIC Escherichia coli (GC 4559),[3]; Escherichia coli (GC 4559),>64 µg/mL
same,MIC Escherichia coli (GC 4560),[3]; Escherichia coli (GC 4560),>64 µg/mL
same,MIC Coagulase Negative Staphylococcus (GC 4547),[4],>64 µg/mL
same,MIC Coagulase Negative Staphylococcus (GC 4547),[4]; broth dilution,>64 µg/mL
same,MIC Coagulase Negative Staphylococcus (GC 4548),[4],>64 µg/mL
same,MIC Coagulase Negative Staphylococcus (GC 4548),[4]; broth dilution,>64 µg/mL
same,MIC Coagulase Negative Staphylococcus (GC 4549),[4],>64 µg/mL
same,MIC Coagulase Negative Staphylococcus (GC 4549),[4]; broth dilution,>64 µg/mL
same,MIC Coagulase Negative Staphylococcus (GC 4551),[4],>64 µg/mL
same,MIC Coagulase Negative Staphylococcus (GC 4551),[4]; broth dilution,>64 µg/mL
same,MIC Coagulase Negative Staphylococcus (GC 6257),[4],>64 µg/mL
same,MIC Coagulase Negative Staphylococcus (GC 6257),[4]; broth dilution,>64 µg/mL
same,MIC Staphylococcus aureus (ATCC 29213),[4],>64 µg/mL
same,MIC Staphylococcus aureus (ATCC 29213),[4]; broth dilution,>64 µg/mL
same,MIC Staphylococcus aureus (GC 1131),[4],>64 µg/mL
same,MIC Staphylococcus aureus (GC 1131),[4]; broth dilution,>64 µg/mL
same,MIC Staphylococcus aureus (GC 3051),[4],>64 µg/mL
same,MIC Staphylococcus aureus (GC 3051),[4]; broth dilution,>64 µg/mL
same,MIC Staphylococcus aureus (GC 3053),[4],>64 µg/mL
same,MIC Staphylococcus aureus (GC 3053),[4]; broth dilution,>64 µg/mL
same,MIC Staphylococcus aureus (GC 4541),[4],>64 µg/mL
same,MIC Staphylococcus aureus (GC 4541),[4]; broth dilution,>64 µg/mL
same,MIC Staphylococcus aureus (GC 4542),[4],>64 µg/mL
same,MIC Staphylococcus aureus (GC 4542),[4]; broth dilution,>64 µg/mL
same,MIC Staphylococcus aureus (GC 4544),[4],>64 µg/mL
same,MIC Staphylococcus aureus (GC 4544),[4]; broth dilution,>64 µg/mL
same,MIC Staphylococcus aureus (GC 4545),[4],>64 µg/mL
same,MIC Staphylococcus aureus (GC 4545),[4]; broth dilution,>64 µg/mL
same,MIC Staphylococcus aureus-SMITH (GC 4543),[4],>64 µg/mL
same,MIC Staphylococcus aureus-SMITH (GC 4543),[4]; broth dilution,>64 µg/mL
same,MIC Staphylococcus haemolyticus (GC 4546),[4],>64 µg/mL
same,MIC Staphylococcus haemolyticus (GC 4546),[4]; broth dilution,>64 µg/mL
same,MIC Enterococcus avium (GC 4558),[5]; Enterococcus avium (GC 4558),64 µg/mL
same,MIC Enterococcus faecalis (ATCC 29212),[5]; Enterococcus faecalis (ATCC 29212),>64 µg/mL
same,MIC Enterococcus faecalis (GC 4553),[5]; Enterococcus faecalis (GC 4553),>64 µg/mL
same,MIC Enterococcus faecalis (GC 4554),[5]; Enterococcus faecalis (GC 4554),>64 µg/mL
same,MIC Enterococcus faecalis (GC 6189),[5]; Enterococcus faecalis (GC 6189),>64 µg/mL
same,MIC Enterococcus faecium (GC 2243),[5]; Enterococcus faecium (GC 2243),>64 µg/mL
same,MIC Enterococcus faecium (GC 4556),[5]; Enterococcus faecium (GC 4556),>64 µg/mL
same,MIC Enterococcus faecium (GC 4557),[5]; Enterococcus faecium (GC 4557),64 µg/mL
same,MIC Enterococcus faecalis (ATCC 29212),"[5]; broth dilution, 18 hours at 35° C., strain ATCC 29212",>64 µg/mL
same,MIC Enterococcus faecalis (GC 2242),"[5]; broth dilution, 18 hours at 35° C., strain GC 2242",>64 µg/mL
same,MIC Enterococcus faecium (GC 2243),"[5]; broth dilution, 18 hours at 35° C., strain GC 2243",>64 µg/mL
same,MIC Enterococcus faecalis (GC 2691),"[5]; broth dilution, 18 hours at 35° C., strain GC 2691",>64 µg/mL
same,MIC Enterococcus faecalis (GC 3059),"[5]; broth dilution, 18 hours at 35° C., strain GC 3059",>64 µg/mL
same,MIC Enterococcus faecalis (GC 4552),"[5]; broth dilution, 18 hours at 35° C., strain GC 4552",>64 µg/mL
same,MIC Enterococcus faecalis (GC 4553),"[5]; broth dilution, 18 hours at 35° C., strain GC 4553",>64 µg/mL
same,MIC Enterococcus faecalis (GC 4554),"[5]; broth dilution, 18 hours at 35° C., strain GC 4554",>64 µg/mL
same,MIC Enterococcus faecium (GC 4556),"[5]; broth dilution, 18 hours at 35° C., strain GC 4556",>64 µg/mL
same,MIC Enterococcus faecium (GC 4557),"[5]; broth dilution, 18 hours at 35° C., strain GC 4557",64 µg/mL
same,MIC Enterococcus avium (GC 4558),"[5]; broth dilution, 18 hours at 35° C., strain GC 4558",64 µg/mL
same,MIC Enterococcus faecalis (GC 6189),"[5]; broth dilution, 18 hours at 35° C., strain GC 6189",>64 µg/mL
